Patent US11317626B2, “Forchlorfenuron mixtures and uses thereof” (Valent BioSciences LLC, priority 2018, dated 2022)

Key:
Type in all cases: in vivo
[1] = test system: Concord grape vines; test: Example 2: Concord grape vines greenhouse, forchlorfenuron and 17-0-0 fertilizer (CAN17) study; conditions: for Fresh Weight at Harvest: combined shoot fresh weight, 52 days after planting; for 50% BB: days after treatment to 50% bud break; for Average Number of Broken Nodes Per Plant at Harvest: harvest 52 days after planting
Text: (§1) To assess the ability of mixtures of the invention to promote and synchronize bud break these mixtures were applied to Concord grape vines and examined for bud break (initiation of growth) and subsequent shoot development. Specifically, dormant bare-rooted Concord grape vines were planted in pots containing Pro-Mix® BX potting soil (Pro-Mix is a registered trademark of and available from Premier Horticulture Ltd.) and pruned to five nodes on a single shoot of one-year-old wood. Nodes are regions on the shoot where leaves arise from the shoot and buds are present at the axis of the shoot:leaf interface. The bud found at the shoot:leaf interface develops into the vines new shoot growth. Aqueous solutions of forchlorfenuron, HC, 15-0-0 fertilizer, 17-0-0 fertilizer, and mixtures thereof were each applied individually or sequentially or co-applied to the first-year wood of separate Concord grape vines. […] Percent bud break is determined by the number of plants that have at least one bud broken divided by the total number of plants per treatment times 100. […] New shoot growth is the growth arising from the dormant buds not including the woody growth that was planted and gave rise to the new growth.
(§2) To determine if the mixtures provided unexpected results, the observed combined efficacy (“OCE”) was divided by the expected combined efficacy (“ECE”) wherein the expected ECE is calculated by the Abbott method: ECE=A+B−(AB/100), • wherein ECE is the expected combined efficacy and in which A and B are the speed of bud break relative to control, the number of buds broken per plant relative to control, shoot length relative to control or shoot weight relative to control given by the single active ingredients. If the ratio between the OCE of the mixture and the ECE of the mixture is greater than 1, then greater than expected interactions are present in the mixture. (Gisi, Synergistic Interaction of Fungicides in Mixtures, The American Phytopathological Society, 86:11, 1273-1279,1996). Results
(§3) The experiment from Example 1 was repeated with varying quantities of forchlorfenuron and fertilizers in a greenhouse experiment.

[2] = test system: Concord grape vines; test: Example 1: bud break and shoot growth of potted Concord grape vines in greenhouse; conditions: for Broken Buds/Plant / FW/Broken Bud: 51 days post-treatment; for FW/Plant: combined shoot fresh weight at 51 DAT; for 50% BB: days from application to 50% of the plants showing at least one bud broken; for 0-50% BB: days from bud break on the first plant to 50% of the plants with bud break, synchrony
Text: An aqueous 50% hydrogen cyanamide solution (Sigma-Aldrich, St. Louis, Mo. USA) was used as the source of hydrogen cyanamide (“HC”). The commercial product, Dormex® contains 50% hydrogen cyanamide (w/v) in an aqueous base.
Erger® was used as the source of 15-0-0 fertilizer. Erger® contains 15% total nitrogen as 3.1% ammoniacal nitrogen, 5.8% nitrate nitrogen, 6.1% urea nitrogen and 3.3% calcium derived from a mixture of ammonium nitrate, calcium nitrate and urea. Erger® is always used in combination with either 20% (w/v) Ca(NO3)2 or Activ Erger®. In the following examples, 15-0-0 fertilizer was applied at a rate of 208,340 ppm calcium nitrate, 15,060 ppm nitrogen nitrate and 15,660 ppm urea or 239,060 ppm total.
CAN-17 was used as the 17-0-0 fertilizer. CAN-17 contains 17% total nitrogen as 4.6% ammonium nitrogen and 11.6% nitrate nitrogen and 1.3% urea nitrogen and 8.8% calcium derived from ammonium nitrate and calcium nitrate. CAN-17 is available from J. R. Simplot Company (Boise, Id., USA). In the following examples, 17-0-0 fertilizer was applied at a rate of 118,200 ppm calcium nitrate and 78,900 ppm nitrogen nitrate or 197,100 ppm total. See, Table 1 below, for ratios of forchlorfenuron (“CPPU”) to fertilizer that were used in the following examples.
To assess the ability of mixtures of the invention to promote and synchronize bud break these mixtures were applied to Concord grape vines and examined for bud break (initiation of growth) and subsequent shoot development. Specifically, dormant bare-rooted Concord grape vines were planted in pots containing Pro-Mix® BX potting soil (Pro-Mix is a registered trademark of and available from Premier Horticulture Ltd.) and pruned to five nodes on a single shoot of one-year-old wood. Nodes are regions on the shoot where leaves arise from the shoot and buds are present at the axis of the shoot:leaf interface. The bud found at the shoot:leaf interface develops into the vines new shoot growth. Aqueous solutions of forchlorfenuron, HC, 15-0-0 fertilizer, 17-0-0 fertilizer, and mixtures thereof were each applied individually or sequentially or co-applied to the first-year wood of separate Concord grape vines. Plants were grown in a heated greenhouse for 49 days and evaluated for percent of vines showing bud break, periodically between seven days after application and the conclusion of the experiment. Percent bud break is determined by the number of plants that have at least one bud broken divided by the total number of plants per treatment times 100. At 51 days after treatment (“DAT”), the plants were sacrificed and measured for total number of flower clusters, total new shoot length, longest new shoot, combined new shoot fresh weight. New shoot growth is the growth arising from the dormant buds not including the woody growth that was planted and gave rise to the new growth.
as §2

[3] = test system: Concord grape vines; test: Example 2: Concord grape vines greenhouse, forchlorfenuron and 15-0-0 fertilizer (Erger) study; conditions: for Fresh Weight at Harvest: combined shoot fresh weight, 52 days after planting; for 50% BB: days after treatment to 50% bud break; for Average Number of Broken Nodes Per Plant at Harvest: harvest 52 days after planting
Text: as §1, §2, §3

O=C(Nc1ccccc1)Nc1ccnc(Cl)c1 [CPPU, N-(2-Chloro-4-pyridyl)-N′-phenylurea]
Fresh Weight at Harvest ([1]; listed as CPPU 300 ppm): 14.30 grams | Fresh Weight at Harvest ([1]; listed as CPPU 600 ppm): 15.10 grams | Fresh Weight at Harvest ([1]; listed as CPPU 1000 ppm): 11.33 grams | 50% BB ([1]; listed as CPPU 300 ppm): 31 days | 50% BB ([1]; listed as CPPU 600 ppm): 35 days | 50% BB ([1]; listed as CPPU 1000 ppm): 38 days | Average Number of Broken Nodes Per Plant at Harvest ([1]; listed as CPPU 300 ppm): 1.86 | Average Number of Broken Nodes Per Plant at Harvest ([1]; listed as CPPU 600 ppm): 2.00 | Average Number of Broken Nodes Per Plant at Harvest ([1]; listed as CPPU 1000 ppm): 1.80 | Percentage of Concord Grape Vines with Dormancy Relieved ([2]; 31 days after treatment, plants with at least one bud showing a green shoot emerging, listed as CPPU 100 ppm): 25% | Percentage of Concord Grape Vines with Dormancy Relieved ([2]; 31 days after treatment, plants with at least one bud showing a green shoot emerging, listed as CPPU 300 ppm): 12.5% | Percentage of Concord Grape Vines with Dormancy Relieved ([2]; 31 days after treatment, plants with at least one bud showing a green shoot emerging, listed as CPPU 1000 ppm): 37.5% | Percentage of Concord Grape Vines with Dormancy Relieved ([2]; 34 days after treatment, listed as CPPU 100 ppm): 50% | Percentage of Concord Grape Vines with Dormancy Relieved ([2]; 34 days after treatment, listed as CPPU 300 ppm): 37.5% | Percentage of Concord Grape Vines with Dormancy Relieved ([2]; 34 days after treatment, listed as CPPU 1000 ppm): 62.5% | Percentage of Concord Grape Vines with Dormancy Relieved ([2]; 36 days after treatment, listed as CPPU 100 ppm): 50% | Percentage of Concord Grape Vines with Dormancy Relieved ([2]; 36 days after treatment, listed as CPPU 300 ppm): 50% | Percentage of Concord Grape Vines with Dormancy Relieved ([2]; 36 days after treatment, listed as CPPU 1000 ppm): 62.5% | Percentage of Concord Grape Vines with Dormancy Relieved ([2]; 38 days after treatment, listed as CPPU 100 ppm): 50% | Percentage of Concord Grape Vines with Dormancy Relieved ([2]; 38 days after treatment, listed as CPPU 300 ppm): 50% | Percentage of Concord Grape Vines with Dormancy Relieved ([2]; 38 days after treatment, listed as CPPU 1000 ppm): 75% | Percentage of Concord Grape Vines with Dormancy Relieved ([2]; 43 days after treatment, listed as CPPU 100 ppm): 75% | Percentage of Concord Grape Vines with Dormancy Relieved ([2]; 43 days after treatment, listed as CPPU 300 ppm): 62.5% | Percentage of Concord Grape Vines with Dormancy Relieved ([2]; 43 days after treatment, listed as CPPU 1000 ppm): 87.5% | Percentage of Concord Grape Vines with Dormancy Relieved ([2]; 45 days after treatment, listed as CPPU 100 ppm): 75% | Percentage of Concord Grape Vines with Dormancy Relieved ([2]; 45 days after treatment, listed as CPPU 300 ppm): 62.5% | Percentage of Concord Grape Vines with Dormancy Relieved ([2]; 45 days after treatment, listed as CPPU 1000 ppm): 87.5% | Percentage of Concord Grape Vines with Dormancy Relieved ([2]; 51 days after treatment, listed as CPPU 100 ppm): 87.5% | Percentage of Concord Grape Vines with Dormancy Relieved ([2]; 51 days after treatment, listed as CPPU 300 ppm): 62.5% | Percentage of Concord Grape Vines with Dormancy Relieved ([2]; 51 days after treatment, listed as CPPU 1000 ppm): 87.5% | Broken Buds/Plant ([2]; listed as CPPU 100 ppm): 1.71 | FW/Broken Bud ([2]; listed as CPPU 100 ppm): 4.73 grams | Broken Buds/Plant ([2]; listed as CPPU 300 ppm): 2.00 | FW/Broken Bud ([2]; listed as CPPU 300 ppm): 4.69 grams | Broken Buds/Plant ([2]; listed as CPPU 1000 ppm): 1.29 | FW/Broken Bud ([2]; listed as CPPU 1000 ppm): 9.51 grams | FW/Plant ([2]; listed as CPPU 100 ppm): 8.11 grams | FW/Plant ([2]; listed as CPPU 300 ppm): 9.39 grams | FW/Plant ([2]; listed as CPPU 1000 ppm): 12.22 grams | 50% BB ([2]; listed as CPPU 100 ppm): 34 days | 50% BB ([2]; listed as CPPU 300 ppm): 36 days | 50% BB ([2]; listed as CPPU 1000 ppm): 34 days | 0-50% BB ([2]; listed as CPPU 100 ppm): 10 days | 0-50% BB ([2]; listed as CPPU 300 ppm): 7 days | 0-50% BB ([2]; listed as CPPU 1000 ppm): 14 days | Fresh Weight at Harvest ([3]; listed as CPPU 300 ppm): 18.04 grams | Fresh Weight at Harvest ([3]; listed as CPPU 600 ppm): 18.54 grams | Fresh Weight at Harvest ([3]; listed as CPPU 1000 ppm): 29.13 grams | 50% BB ([3]; listed as CPPU 300 ppm): 26 days | 50% BB ([3]; listed as CPPU 600 ppm): 31 days | 50% BB ([3]; listed as CPPU 1000 ppm): 24 days | Average Number of Broken Nodes Per Plant at Harvest ([3]; listed as CPPU 300 ppm): 1.25 | Average Number of Broken Nodes Per Plant at Harvest ([3]; listed as CPPU 600 ppm): 1.88 | Average Number of Broken Nodes Per Plant at Harvest ([3]; listed as CPPU 1000 ppm): 2.63
